These results are taken from patent publication US7022830B2, “Hepatitis C virus codon optimized non-structural NS3/4A fusion gene” (priority 2000, dated 2006).

Molecules are shown by their SMILES.

In one assay the test system is rNS3. The assay is described as follows: ribavirin dose finding, rNS3-specific IgG by EIA (FIG. 8, TABLE 17). Type of assay: in vivo, mice. As to the method:
The levels of antibody to the antigen were then determined by EIA.
A second set of experiments was also performed. […] The mice were bled at week six and rNS3-specific IgG levels were determined by EIA as described previously.

A further assay has as its system NS3. The assay is described as follows: NS3-specific IgG subclasses by EIA after primary and booster injection (TABLE 18). The class given is in vivo, mice. As to conditions: 10 μg rNS3 with 0.1 or 1.0 mg ribavirin at weeks 0 and 4; bled week six. As to the method:
The mice were bled at week six and NS3-specific IgG subclasses were determined by EIA as described previously.

Assay [1] concerns NS3-specific CD4+ T cell proliferation. As to the kind of experiment: in vitro recall assay, CD4+ T cell proliferation of lymph node cells, [3H] thymidine. The class given is in vivo, mice. The following applies: 100 μg rNS3 mixed with 1 mg ribavirin s.c.; ten days; 96 h culture (FIG. 9). As to the method:
This assay can be used with any ribavirin derivative or combinations of ribavirin derivatives to determine the extent that a particular vaccine formulation modulates a cellular immune response. […] The mice were sacrificed ten days post-immunization and their lymph nodes were harvested and drained. In vitro recall assays were then performed. (See e.g., Hultgren et al., J Gen Virol. 79:2381-91 (1998) and Hultgren et al., Clin. Diagn. Lab. Immunol. 4:630-632 (1997)). The amount of CD4^+ T cell proliferation was determined at 96 h of culture by the incorporation of [^3H] thymidine.

In a further assay the test system is HBsAg. The assay is described as follows: EIA end point antibody titer to HBsAg, Engerix vaccine with or without ribavirin (TABLE 19). The class given is in vivo, mice. As to conditions: 1 mg ribavirin with 2 μg vaccine i.p.; booster week four, bled week six. From the text:
(Engerix, SKB). […] A booster containing the same mixture was given on week four and all mice were bled on week six.

For assay [2], the system named is inositol mono-phosphate (IMP) dehydrogenase (IMPDH). The following applies: cited from earlier work.

With `NC(=O)c1ncn([C@@H]2O[C@H](CO)[C@@H](O)[C@H]2O)n1` [ribavirin, 1-β-D-ribofuranosyl-1,2,4-triazole-3-carboxamide], the “effect on antibody levels” value in the assay on rNS3 (higher doses (1-10 mg) ribavirin with 20 μg rNS3, week three (FIG. 8)) was “enhance antibody levels at week three”; with rNS3 (low doses (<1 mg) ribavirin with 20 μg rNS3, week one (FIG. 8)), “enhance antibody levels at week one”; in the assay with rNS3 (low doses (<1 mg) ribavirin with 20 μg rNS3, week three (FIG. 8)) it was “not at week three”. For the same molecule, in the assay with NS3, the “effect on IgG subclass response” value is “does not change the IgG subclass response”. Also, the “T cell proliferative response versus 100 μg rNS3 in PBS” value in assay [1] is “much greater T cell proliferative response”. The “effect on antibody response to Engerix vaccine” value with HBsAg is reported as “enhanced the response”. Also, the “mode of action on IMPDH” value in assay [2] is “competitive inhibitor”.
